ChEMBL document CHEMBL1157239, “Hurghadolide A and swinholide I, potent actin-microfilament disrupters from the Red Sea sponge Theonella swinhoei” (J Nat Prod, 2006)
In brackets after ≈: the same amount, converted by molar mass. Several values for one entry are separate records, joined by “and”; a condition that tells them apart may be missing. Equal entries are not always repeated. Activity calls are given as the source filed them. No cut-off for these calls is given here.

Assays:
A10 [1] = assay: Disruption of actin cytoskeleton in rat A10 cells assessed as generation of binucleated cells at 7.3 nM after 24 hrs by TRITC-phalloidin assay; format: functional, cell-based
Candida albicans [2] = assay: Antifungal activity against wild-type Candida albicans; format: functional
HCT-116 = assay: Cytotoxicity against human HCT116 cells after 72 hrs by MTS reduction assay; format: functional, cell-based; conditions: HCT-116, 72 h
Candida albicans [3] = assay: Antifungal activity against amphotericin B-resistant Candida albicans; format: functional
A10 [4] = assay: Disruption of actin cytoskeleton in rat A10 cells assessed as generation of binucleated cells at 70 nM after 24 hrs by TRITC-phalloidin assay; format: functional, cell-based

Compound	Activity (A10 [1])	MIC (Candida albicans [2]) [µg/mL]	IC50 (HCT-116)	MIC (Candida albicans [3]) [µg/mL]	Activity (A10 [4])
CO[C@H]1C[C@H](CC[C@H](C)[C@H](O)[C@H](C)[C@H]2OC(=O)/C=C/C(C)=C/C[C@H](O)C[C@@H]3C=CC[C@@H](C[C@H](OC)[C@@H](C)[C@@H](O)C[C@@H](O)[C@H](C)[C@@H]([C@@H](C)[C@@H](O)[C@@H](C)CC[C@H]4C[C@H](OC)C[C@H](C)O4)OC(=O)/C=C/C(C)=C/C[C@H](O)C[C@@H]4C=CC[C@@H](C[C@H](OC)[C@@H](C)[C@@H](O)C[C@@H](O)[C@@H]2C)O4)O3)O[C@@H](C)C1	Active	–	–	–	–
C[C@@H]1[C@H](O)[C@@H](C)/C=C/C=C/C=C/C=C/C=C/C=C/C=C/[C@H](O[C@@H]2O[C@H](C)[C@@H](O)[C@H](N)[C@@H]2O)C[C@@H]2O[C@](O)(C[C@@H](O)C[C@@H](O)[C@H](O)CC[C@@H](O)C[C@@H](O)CC(=O)O[C@H]1C)C[C@H](O)[C@H]2C(=O)O [AMPHOTERICIN B]	–	1.56 (≈ 1.69 µM)	–	–	–
CO[C@H]1C[C@H](CC[C@H](C)[C@H](O)[C@H](C)[C@H]2OC(=O)/C=C/C(C)=C/C[C@H](O)C[C@@H]3C=CC[C@@H](C[C@H](OC)[C@@H](C)[C@@H](O)C[C@@H](O)[C@H](C)[C@@H]([C@@H](C)[C@@H](O)[C@@H](C)CC[C@H]4C[C@H](OC)C[C@H](C)O4)OC(=O)/C(C)=C/C[C@H](O)C[C@@H]4C=CC[C@@H](C[C@H](OC)[C@@H](C)[C@@H](O)C[C@@H](O)[C@@H]2C)O4)O3)O[C@@H](C)C1 [HURGHADOLIDE A]	–	31.3 (≈ 22.9 µM)	365 nM and 0.5 µg/mL	31.3 (≈ 22.9 µM)	–
CO[C@@H]1C[C@H](C)O[C@@H](C(O)C[C@H](C)[C@H](O)[C@H](C)[C@H]2OC(=O)/C=C/C(C)=C/C[C@H](O)C[C@@H]3C=CC[C@@H](C[C@H](OC)[C@@H](C)[C@@H](O)C[C@@H](O)[C@H](C)[C@@H]([C@@H](C)[C@@H](O)[C@@H](C)CC[C@H]4C[C@H](OC)C[C@H](C)O4)OC(=O)/C=C/C(C)=C/C[C@H](O)C[C@@H]4C=CC[C@@H](C[C@H](OC)[C@@H](C)[C@@H](O)C[C@@H](O)[C@@H]2C)O4)O3)C1 (some centres undefined) [Swinholide I]	–	62.2 (≈ 44.2 µM)	5.6 nM and 0.008 µg/mL	500 (≈ 356 µM)	Active
